Experiments:
Experiment in all cases: radiometric filter-binding kinase assay, Kinase HotSpot
Settings in all cases: compound 0.5 µM; ATP 10 µM
[1] = target: ACVR1 (human) (UniProt Q04771)
[2] = target: ADRBK1 (human) (UniProt P25098)
[3] = target: AKT3 (human) (UniProt Q9Y243)
[4] = target: ALK (human) (UniProt Q9UM73)
[5] = target: CAMK1 (human) (UniProt Q14012)
[6] = target: CAMK1D (human) (UniProt Q8IU85)
[7] = target: CAMK2B (human) (UniProt Q13554)
[8] = target: CAMKK1 (human) (UniProt Q8N5S9)
[9] = target: CDK1 CCNB1 (human) (UniProt P06493+P14635)
[10] = target: CDK2 CCNE1 (human) (UniProt P24941+P24864)
[11] = target: CDK3 CCNE1 (human) (UniProt Q00526+P24864)
[12] = target: CDK7 CCNH MNAT1 (human) (UniProt P50613+P51948+P51946)
[13] = target: CHUK (human) (UniProt O15111)
[14] = target: CSNK1G1 (human) (UniProt Q9HCP0)
[15] = target: DYRK1A (human) (UniProt Q13627)
[16] = target: EGFR (human) (UniProt P00533)
[17] = target: EPHA7 (human) (UniProt Q15375)
[18] = target: GRK5 (human) (UniProt P34947)
[19] = target: GRK6 (human) (UniProt P43250)
[20] = target: HIPK3 (human) (UniProt Q9H422)
[21] = target: LCK (human) (UniProt P06239)
[22] = target: LIMK1 (human) (UniProt P53667)
[23] = target: MAP4K4 (human) (UniProt O95819)
[24] = target: MELK (human) (UniProt Q14680)
[25] = target: MINK1 (human) (UniProt Q8N4C8)
[26] = target: MKNK2 (human) (UniProt Q9HBH9)
[27] = target: NEK2 (human) (UniProt P51955)
[28] = target: NEK4 (human) (UniProt P51957)
[29] = target: NTRK1 (human) (UniProt P04629)
[30] = target: PDGFRA (human) (UniProt P16234)
[31] = target: PDGFRB (human) (UniProt P09619)
[32] = target: PRKCA (human) (UniProt P17252)
[33] = target: PRKCG (human) (UniProt P05129)
[34] = target: PRKCI (human) (UniProt P41743)
[35] = target: PRKCZ (human) (UniProt Q05513)
[36] = target: PRKD1 (human) (UniProt Q15139)
[37] = target: PRKD3 (human) (UniProt O94806)
[38] = target: SRMS (human) (UniProt Q9H3Y6)
[39] = target: SRPK1 (human) (UniProt Q96SB4)
[40] = target: STK25 (human) (UniProt O00506)
[41] = target: TGFBR1 (human) (UniProt P36897)
[42] = target: WNK3 (human) (UniProt Q9BYP7)

CAMKK1 (human), sequence (Q8N5S9 whole entry, looked up): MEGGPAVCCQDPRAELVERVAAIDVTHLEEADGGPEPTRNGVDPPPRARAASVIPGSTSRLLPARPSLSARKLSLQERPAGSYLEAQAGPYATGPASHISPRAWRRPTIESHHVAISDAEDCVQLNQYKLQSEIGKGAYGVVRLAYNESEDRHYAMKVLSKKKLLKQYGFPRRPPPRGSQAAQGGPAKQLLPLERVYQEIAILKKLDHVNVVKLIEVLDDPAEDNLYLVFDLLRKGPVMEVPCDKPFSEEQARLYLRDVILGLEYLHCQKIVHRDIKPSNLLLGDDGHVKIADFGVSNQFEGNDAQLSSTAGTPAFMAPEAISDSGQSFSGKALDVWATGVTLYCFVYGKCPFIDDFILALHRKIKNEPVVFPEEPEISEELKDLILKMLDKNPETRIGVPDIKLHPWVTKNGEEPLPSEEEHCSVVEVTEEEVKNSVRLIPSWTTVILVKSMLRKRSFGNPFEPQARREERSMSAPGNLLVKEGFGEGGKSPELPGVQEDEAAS
NEK2 (human), sequence (P51955 whole entry, looked up): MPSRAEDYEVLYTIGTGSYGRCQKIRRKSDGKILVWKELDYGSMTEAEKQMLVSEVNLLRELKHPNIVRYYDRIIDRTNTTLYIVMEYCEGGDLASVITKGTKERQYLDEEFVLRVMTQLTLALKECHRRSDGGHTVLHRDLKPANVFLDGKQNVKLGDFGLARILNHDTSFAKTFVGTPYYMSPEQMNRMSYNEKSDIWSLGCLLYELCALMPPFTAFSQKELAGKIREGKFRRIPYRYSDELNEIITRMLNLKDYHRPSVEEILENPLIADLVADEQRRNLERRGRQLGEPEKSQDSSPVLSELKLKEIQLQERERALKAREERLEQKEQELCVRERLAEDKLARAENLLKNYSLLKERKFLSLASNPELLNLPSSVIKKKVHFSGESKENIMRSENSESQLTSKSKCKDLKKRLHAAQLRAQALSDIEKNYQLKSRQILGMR
MELK (human), sequence (Q14680 whole entry, looked up): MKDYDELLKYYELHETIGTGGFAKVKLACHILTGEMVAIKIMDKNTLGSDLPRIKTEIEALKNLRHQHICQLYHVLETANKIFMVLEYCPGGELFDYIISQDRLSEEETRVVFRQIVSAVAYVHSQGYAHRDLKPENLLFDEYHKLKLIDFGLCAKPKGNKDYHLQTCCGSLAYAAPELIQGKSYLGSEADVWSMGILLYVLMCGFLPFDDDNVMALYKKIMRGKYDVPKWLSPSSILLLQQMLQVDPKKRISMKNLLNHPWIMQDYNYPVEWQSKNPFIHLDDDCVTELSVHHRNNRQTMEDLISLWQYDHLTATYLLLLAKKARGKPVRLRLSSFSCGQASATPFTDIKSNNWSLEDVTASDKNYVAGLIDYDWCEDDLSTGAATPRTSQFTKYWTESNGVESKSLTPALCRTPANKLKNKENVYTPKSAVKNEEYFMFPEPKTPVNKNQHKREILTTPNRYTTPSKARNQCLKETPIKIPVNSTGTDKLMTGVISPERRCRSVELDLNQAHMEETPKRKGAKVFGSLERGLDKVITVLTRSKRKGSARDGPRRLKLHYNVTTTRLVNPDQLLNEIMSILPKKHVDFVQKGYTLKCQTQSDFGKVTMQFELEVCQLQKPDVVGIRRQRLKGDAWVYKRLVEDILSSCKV
TGFBR1 (human), sequence (P36897 whole entry, looked up): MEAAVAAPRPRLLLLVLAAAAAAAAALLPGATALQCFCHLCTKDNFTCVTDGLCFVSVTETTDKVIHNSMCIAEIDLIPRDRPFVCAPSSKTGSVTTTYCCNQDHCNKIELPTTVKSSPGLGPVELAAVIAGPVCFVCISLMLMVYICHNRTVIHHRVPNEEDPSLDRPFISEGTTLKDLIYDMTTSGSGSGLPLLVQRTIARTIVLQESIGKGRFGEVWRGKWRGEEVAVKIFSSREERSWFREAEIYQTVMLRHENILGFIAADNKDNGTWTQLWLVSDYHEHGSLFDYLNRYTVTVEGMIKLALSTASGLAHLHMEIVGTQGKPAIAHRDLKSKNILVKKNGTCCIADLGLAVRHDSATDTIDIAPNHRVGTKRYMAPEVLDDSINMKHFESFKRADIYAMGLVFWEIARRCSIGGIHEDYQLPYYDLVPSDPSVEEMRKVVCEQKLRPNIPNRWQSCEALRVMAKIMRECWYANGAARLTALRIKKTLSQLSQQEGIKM
PDGFRB (human), sequence (P09619 whole entry, looked up): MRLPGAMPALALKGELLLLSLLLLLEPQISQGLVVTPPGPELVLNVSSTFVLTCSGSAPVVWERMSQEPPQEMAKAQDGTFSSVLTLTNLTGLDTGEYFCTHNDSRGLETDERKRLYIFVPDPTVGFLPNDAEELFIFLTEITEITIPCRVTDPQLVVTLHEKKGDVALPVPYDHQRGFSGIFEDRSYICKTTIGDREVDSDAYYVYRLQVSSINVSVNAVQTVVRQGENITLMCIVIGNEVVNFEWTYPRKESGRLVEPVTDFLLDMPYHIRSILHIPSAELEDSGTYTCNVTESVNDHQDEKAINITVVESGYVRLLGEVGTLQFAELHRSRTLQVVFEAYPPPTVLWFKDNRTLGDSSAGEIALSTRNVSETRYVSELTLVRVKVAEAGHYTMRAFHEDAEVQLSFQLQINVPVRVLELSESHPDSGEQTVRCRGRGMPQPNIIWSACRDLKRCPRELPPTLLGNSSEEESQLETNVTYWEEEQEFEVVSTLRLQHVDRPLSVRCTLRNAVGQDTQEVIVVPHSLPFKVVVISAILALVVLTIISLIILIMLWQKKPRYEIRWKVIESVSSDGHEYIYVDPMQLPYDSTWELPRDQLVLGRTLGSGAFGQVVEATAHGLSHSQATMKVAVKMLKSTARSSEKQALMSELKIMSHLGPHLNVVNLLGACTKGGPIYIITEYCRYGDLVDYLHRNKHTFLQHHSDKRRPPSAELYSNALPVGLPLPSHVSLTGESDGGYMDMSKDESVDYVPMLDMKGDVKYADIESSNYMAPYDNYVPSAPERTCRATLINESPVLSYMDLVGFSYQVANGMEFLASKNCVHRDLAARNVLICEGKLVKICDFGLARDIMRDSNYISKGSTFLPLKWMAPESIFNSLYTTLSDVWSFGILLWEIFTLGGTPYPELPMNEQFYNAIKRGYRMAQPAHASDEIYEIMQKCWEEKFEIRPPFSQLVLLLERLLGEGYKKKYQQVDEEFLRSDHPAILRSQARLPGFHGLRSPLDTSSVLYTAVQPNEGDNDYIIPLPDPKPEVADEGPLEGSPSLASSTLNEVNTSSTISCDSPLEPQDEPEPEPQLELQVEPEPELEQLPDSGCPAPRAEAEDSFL
CHUK (human), sequence (O15111 whole entry, looked up): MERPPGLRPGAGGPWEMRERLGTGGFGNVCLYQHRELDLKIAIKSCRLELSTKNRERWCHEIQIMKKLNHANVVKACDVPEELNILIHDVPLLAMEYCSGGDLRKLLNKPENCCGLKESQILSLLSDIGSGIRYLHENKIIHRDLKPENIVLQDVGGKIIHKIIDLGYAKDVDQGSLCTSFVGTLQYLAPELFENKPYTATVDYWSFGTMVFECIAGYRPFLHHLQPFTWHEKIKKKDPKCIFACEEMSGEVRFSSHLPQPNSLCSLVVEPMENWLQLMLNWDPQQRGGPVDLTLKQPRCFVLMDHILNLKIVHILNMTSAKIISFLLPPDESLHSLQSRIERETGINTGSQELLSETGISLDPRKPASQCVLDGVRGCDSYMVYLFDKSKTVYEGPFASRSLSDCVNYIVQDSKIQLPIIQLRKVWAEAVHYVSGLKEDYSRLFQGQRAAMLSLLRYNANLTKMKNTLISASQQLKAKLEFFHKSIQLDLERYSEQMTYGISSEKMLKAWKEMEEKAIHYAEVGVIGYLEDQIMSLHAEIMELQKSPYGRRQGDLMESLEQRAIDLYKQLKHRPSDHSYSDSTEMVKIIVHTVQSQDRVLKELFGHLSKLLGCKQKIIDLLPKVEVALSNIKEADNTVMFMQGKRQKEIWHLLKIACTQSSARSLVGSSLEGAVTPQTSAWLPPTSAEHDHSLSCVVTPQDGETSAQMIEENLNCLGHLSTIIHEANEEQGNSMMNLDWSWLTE
CAMK1D (human), sequence (Q8IU85 whole entry, looked up): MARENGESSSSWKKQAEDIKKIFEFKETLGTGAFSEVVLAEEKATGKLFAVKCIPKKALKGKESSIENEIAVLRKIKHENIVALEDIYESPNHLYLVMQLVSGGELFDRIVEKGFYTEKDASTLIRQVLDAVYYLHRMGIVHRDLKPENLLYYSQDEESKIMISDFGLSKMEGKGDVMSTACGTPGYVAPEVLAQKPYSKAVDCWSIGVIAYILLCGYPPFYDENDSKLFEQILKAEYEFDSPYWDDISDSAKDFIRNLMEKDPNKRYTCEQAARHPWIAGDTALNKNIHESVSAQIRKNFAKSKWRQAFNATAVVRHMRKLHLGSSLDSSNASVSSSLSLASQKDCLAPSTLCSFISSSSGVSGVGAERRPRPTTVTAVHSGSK

**Q.** What does the source list for CC[n+]1c(/C=C/N(C)c2ccccc2)n(-c2ccccc2)c2ccc(-c3nc4ccccc4s3)cc21?
**A.** residual activity [1]: 103%; residual activity [2]: 87.5%; residual activity [3]: 109%; residual activity [4]: 99.1%; residual activity [5]: 94.4%; residual activity [6]: 99.7%; residual activity [7]: 103%; residual activity [8]: 115%; residual activity [9]: 105%; residual activity [10]: 92.9%; residual activity [11]: 92.2%; residual activity [12]: 97.8%; residual activity [13]: 86%; residual activity [14]: 104%; residual activity [15]: 96.7%; residual activity [16]: 103%; residual activity [17]: 97.9%; residual activity [18]: 109%; residual activity [19]: 98.9%; residual activity [20]: 105%; residual activity [21]: 89.9%; residual activity [22]: 98.3%; residual activity [23]: 110%; residual activity [24]: 93.4%; residual activity [25]: 99%; residual activity [26]: 97.4%; residual activity [27]: 100%; residual activity [28]: 90.5%; residual activity [29]: 99.1%; residual activity [30]: 95.2%; residual activity [31]: 102%; residual activity [32]: 77.7%; residual activity [33]: 99.4%; residual activity [34]: 90.1%; residual activity [35]: 99.8%; residual activity [36]: 91.9%; residual activity [37]: 97.4%; residual activity [38]: 93.7%; residual activity [39]: 105%; residual activity [40]: 96.5%; residual activity [41]: 102%; residual activity [42]: 85.9%

**Q.** Which results are given for O=C1NC(=O)c2c1c1c3ccccc3n3c1c1c2c2ccccc2n1C1CCC3O1?
**A.** residual activity [1]: 85.8%; residual activity [2]: 97.9%; residual activity [3]: 27.1%; residual activity [4]: 36.9%; residual activity [5]: 69.7%; residual activity [6]: 33.6%; residual activity [7]: 9.85%; residual activity [8]: 27.2%; residual activity [9]: 29.9%; residual activity [10]: 28.5%; residual activity [11]: 71.5%; residual activity [12]: 80.4%; residual activity [13]: 106%; residual activity [14]: 96.1%; residual activity [15]: 8.74%; residual activity [16]: 78.3%; residual activity [17]: 69.2%; residual activity [18]: 88.7%; residual activity [19]: 55.6%; residual activity [20]: 49.9%; residual activity [21]: 36.2%; residual activity [22]: 49.3%; residual activity [23]: 0.995%; residual activity [24]: 7.13%; residual activity [25]: 0.901%; residual activity [26]: 9.71%; residual activity [27]: 93.8%; residual activity [28]: 22%; residual activity [29]: 4.98%; residual activity [30]: 32.8%; residual activity [31]: 19.1%; residual activity [32]: 13.9%; residual activity [33]: 32.8%; residual activity [34]: 86.4%; residual activity [35]: 87.4%; residual activity [36]: 1.89%; residual activity [37]: -0.0451%; residual activity [38]: 105%; residual activity [39]: 88.1%; residual activity [40]: 34.4%; residual activity [41]: 110%; residual activity [42]: 86%
